Data taken from US8623429B2, “Stabilized anthocyanin compositions” (Omnica GmbH, priority 2007, dated 2014).
One block for each compound: values may come before it.

Experiments:
[1] = Example 1: stability of bilberry extract anthocyanosides, 4 hours at 37° C., pH 7.0, with/without DHLA or GSH (HPLC); type: physicochemical; details: for % left, GSH (4 hours) / Peak Area, GSH (4 hours): 20 mg reduced L-glutathione; for % left, GSH (4 hours) / Peak Area, GSH (4 hours) / % left, DHLA (4 hours) / Peak Area, DHLA (4 hours) / % left, Blank (4 hours) / Peak Area, Blank (4 hours): pH 7.0, 37° C.; for % left, DHLA (4 hours) / Peak Area, DHLA (4 hours): 30 mg dihydrolipoic acid; for Peak Area, Fresh (0 hours): bilberry extract 60 mg/100 ml sodium phosphate buffer pH 7.0, fresh sample; for % left, Blank (4 hours) / Peak Area, Blank (4 hours): unprotected
[2] = Example 2: degradation over time of selected bilberry anthocyanosides at 37° C., pH 7.0, with/without GSH (HPLC); type: physicochemical; details: pH 7.0, 37° C.; for %-residual anthocyanosides (% left): 4.30 hours
Method: Sample a) 60 mg bilberry extract [37% anthocyanosides] (0.048 mmol expressed as cyanidin-3-O-glucoside) were added to a 100 ml, filled to volume with sodium phosphate buffer (5% [w/w], pH=7.0) and stirred until dissolution was complete. A 1 ml sample was immediately taken and acidified with formic acid to pH=1.0 and analyzed by HPLC for the content of anthocyanosides. The remaining solution was kept at 37° C. (water bath) with stirring and additional 1 ml samples (Blank Samples), representing unprotected degradation, were sampled every 15 minutes. The samples were analyzed for selected anthocyanosides by HPLC.
Sample b) 20 mg reduced L-glutathione (0.065 mmol) were added to a 100 ml flask with 60 ml sodium phosphate buffer (5% [w/w], pH=7.0) and stirred until dissolution was complete. 60 mg bilberry extract [37% anthocyanosides] (0.048 mmol expressed as cyanidin-3-O-glucoside) were added and the flask was filled to volume with sodium phosphate buffer (5% [w/w], pH=7.0) and kept at 37° C. (water bath) with stirring. Every 15 minutes, 1 ml samples were taken and analyzed for selected anthocyanosides by HPLC.
Samples were prepared as outlined below in HPLC Analytical Method. Test stability samples were immediately acidified (to block degradation) and injected undiluted following the detailed description provided below.
HPLC Analytical Method (Materials, Instruments and Methods): […]

Compound: COc1cc(-c2[o+]c3cc(O)cc(O)c3cc2O[C@@H]2O[C@H](CO)[C@@H](O)[C@H](O)[C@H]2O)ccc1O [Pe-3O-Glc, Peonidin 3-o-glucoside]
% left, GSH (4 hours) [1]: 76.9% | Peak Area, GSH (4 hours) [1]: 172.0 | % left, DHLA (4 hours) [1]: 62.3% | Peak Area, DHLA (4 hours) [1]: 139.2 | Peak Area, Fresh (0 hours) [1]: 223.6 | % left, Blank (4 hours) [1]: 42.4% | Peak Area, Blank (4 hours) [1]: 94.8

Compound: COc1cc(-c2[o+]c3cc(O)cc(O)c3cc2O[C@@H]2O[C@H](CO)[C@@H](O)[C@H](O)[C@H]2O)cc(OC)c1O [Mv-3O-Glc, Malvidin 3-o-glucoside]
% left, GSH (4 hours) [1]: 73.7% | Peak Area, GSH (4 hours) [1]: 336.2 | % left, DHLA (4 hours) [1]: 63.0% | Peak Area, DHLA (4 hours) [1]: 287.4 | Peak Area, Fresh (0 hours) [1]: 455.9 | % left, Blank (4 hours) [1]: 36.1% | Peak Area, Blank (4 hours) [1]: 164.7

Compound: COc1cc(-c2[o+]c3cc(O)cc(O)c3cc2O[C@@H]2O[C@H](CO)[C@H](O)[C@H](O)[C@H]2O)cc(OC)c1O [Mv-3O-Gal, Malvidin 3-o-galactoside]
% left, GSH (4 hours) [1]: 74.4% | Peak Area, GSH (4 hours) [1]: 133.2 | % left, DHLA (4 hours) [1]: 62.8% | Peak Area, DHLA (4 hours) [1]: 112.5 | Peak Area, Fresh (0 hours) [1]: 179.1 | % left, Blank (4 hours) [1]: 37.6% | Peak Area, Blank (4 hours) [1]: 67.3

Compound: COc1cc(-c2[o+]c3cc(O)cc(O)c3cc2O[C@@H]2OC[C@H](O)[C@H](O)[C@H]2O)cc(OC)c1O [Mv-3O-Ara, Malvidin 3-o-arabinoside]
% left, GSH (4 hours) [1]: 75.0% | Peak Area, GSH (4 hours) [1]: 81.2 | % left, DHLA (4 hours) [1]: 69.4% | Peak Area, DHLA (4 hours) [1]: 75.2 | Peak Area, Fresh (0 hours) [1]: 108.3 | % left, Blank (4 hours) [1]: 34.0% | Peak Area, Blank (4 hours) [1]: 36.8

Other lines, results leading:

% left, GSH (4 hours) [1]: 79.5% | Peak Area, GSH (4 hours) [1]: 293.7 | % left, DHLA (4 hours) [1]: 70.2% | Peak Area, DHLA (4 hours) [1]: 258.4 | Peak Area, Fresh (0 hours) [1]: 369.6 | % left, Blank (4 hours) [1]: 38.5% | Peak Area, Blank (4 hours) [1]: 142.3
Compound: Oc1cc(O)c2cc(O[C@@H]3OC[C@H](O)[C@H](O)[C@H]3O)c(-c3ccc(O)c(O)c3)[o+]c2c1 [Cn-3O-Ara, Cyanidin 3-o-arabinoside]

% left, GSH (4 hours) [1]: 66.7% | Peak Area, GSH (4 hours) [1]: 315.6 | % left, DHLA (4 hours) [1]: 57.4% | Peak Area, DHLA (4 hours) [1]: 271.9 | Peak Area, Fresh (0 hours) [1]: 473.4 | % left, Blank (4 hours) [1]: 16.6% | Peak Area, Blank (4 hours) [1]: 78.8
Compound: COc1cc(-c2[o+]c3cc(O)cc(O)c3cc2O[C@@H]2O[C@H](CO)[C@@H](O)[C@H](O)[C@H]2O)cc(O)c1O [Pt-3O-Glc, Petunidin 3-o-glucoside]

% left, GSH (4 hours) [1]: 69.3% | Peak Area, GSH (4 hours) [1]: 150.0 | % left, DHLA (4 hours) [1]: 61.4% | Peak Area, DHLA (4 hours) [1]: 132.8 | Peak Area, Fresh (0 hours) [1]: 216.4 | % left, Blank (4 hours) [1]: 18.8% | Peak Area, Blank (4 hours) [1]: 40.7 | Peak Area ([2]; Blank Sample, 1:15 h): 124.16 | Peak Area ([2]; Blank Sample, 4:15 h): 102.44 | Peak Area ([2]; Blank Sample, 4:30 h): 58.78 | Peak Area ([2]; Blank sample, 0:00 h): 237.44 | Peak Area ([2]; Blank sample, 0:15 h): 179.60 | Peak Area ([2]; Blank sample, 0:30 h): 203.39 | Peak Area ([2]; Blank sample, 0:45 h): 152.46 | Peak Area ([2]; Blank sample, 1:00 h): 161.49 | Peak Area ([2]; Blank sample, 1:45 h): 144.59 | Peak Area ([2]; Blank sample, 2:00 h): 132.38 | Peak Area ([2]; Blank sample, 2:15 h): 121.96 | Peak Area ([2]; Blank sample, 2:30 h): 96.36 | Peak Area ([2]; Blank sample, 2:45 h): 99.38 | Peak Area ([2]; Blank sample, 3:00 h): 127.47 | Peak Area ([2]; Blank sample, 3:15 h): 123.02 | Peak Area ([2]; Blank sample, 3:30 h): 98.72 | Peak Area ([2]; Blank sample, 4:00 h): 107.51 | %-residual anthocyanosides (% left) ([2]; Blank): 25% | Peak Area ([2]; GSH Protected Sample (20 mg), 0:30 h): 222.35 | Peak Area ([2]; GSH Protected Sample (20 mg), 1:30 h): 202.34 | Peak Area ([2]; GSH Protected Sample (20 mg), 2:30 h): 169.36 | Peak Area ([2]; GSH Protected Sample (20 mg), 3:30 h): 181.53 | Peak Area ([2]; GSH Protected Sample (20 mg), 4:30 h): 181.46 | Peak Area ([2]; GSH Protected Sample (20 mg), 4:45 h): 166.84 | Peak Area ([2]; GSH protected sample (20 mg), 0:00 h): 248.16 | Peak Area ([2]; GSH protected sample (20 mg), 0:15 h): 245.04 | Peak Area ([2]; GSH protected sample (20 mg), 0:45 h): 195.63 | Peak Area ([2]; GSH protected sample (20 mg), 1:00 h): 213.84 | Peak Area ([2]; GSH protected sample (20 mg), 1:15 h): 210.34 | Peak Area ([2]; GSH protected sample (20 mg), 1:45 h): 194.88 | Peak Area ([2]; GSH protected sample (20 mg), 2:00 h): 193.23 | Peak Area ([2]; GSH protected sample (20 mg), 2:15 h): 199.06 | Peak Area ([2]; GSH protected sample (20 mg), 2:45 h): 183.97 | Peak Area ([2]; GSH protected sample (20 mg), 3:00 h): 189.41 | Peak Area ([2]; GSH protected sample (20 mg), 3:15 h): 185.92 | Peak Area ([2]; GSH protected sample (20 mg), 3:45 h): 173.03 | Peak Area ([2]; GSH protected sample (20 mg), 4:00 h): 193.79 | Peak Area ([2]; GSH protected sample (20 mg), 4:15 h): 179.46 | %-residual anthocyanosides (% left) ([2]; GSH-protected): 67% | %-residual anthocyanosides (% left) ([2]; GSH-protected, listed as petunidin-3-O-Galactose): 67%
Compound: COc1cc(-c2[o+]c3cc(O)cc(O)c3cc2OC2OC(CO)C(O)C(O)C2O)cc(O)c1O (stereo not shown) [Pt-3O-Gal, Petunidin 3-o-galactoside]

% left, GSH (4 hours) [1]: 69.4% | Peak Area, GSH (4 hours) [1]: 97.6 | % left, DHLA (4 hours) [1]: 66.6% | Peak Area, DHLA (4 hours) [1]: 93.7 | Peak Area, Fresh (0 hours) [1]: 140.6 | % left, Blank (4 hours) [1]: 16.2% | Peak Area, Blank (4 hours) [1]: 22.8
Compound: COc1cc(-c2[o+]c3cc(O)cc(O)c3cc2O[C@@H]2OC[C@H](O)[C@H](O)[C@H]2O)cc(O)c1O.[Cl-] [Pt-3O-Ara, Petunidin 3-o-arabinoside]

% left, GSH (4 hours) [1]: 50.2% | Peak Area, GSH (4 hours) [1]: 283.6 | % left, DHLA (4 hours) [1]: 64.5% | Peak Area, DHLA (4 hours) [1]: 364.4 | Peak Area, Fresh (0 hours) [1]: 564.9 | % left, Blank (4 hours) [1]: 6.9% | Peak Area, Blank (4 hours) [1]: 39.1
Compound: Oc1cc(O)c2cc(O[C@H]3OC[C@H](O)[C@H](O)[C@H]3O)c(-c3cc(O)c(O)c(O)c3)[o+]c2c1 [Dp-3O-Ara, Delphinidin 3-o-arabinoside]
